Assay results published in patent US9051290B2, “Biaryl phosphodiesterase inhibitors” (LEO PHARMA A/S, priority 2010, dated 2015).

Biological target: Human recombinant PDE4 (Genbank accession no NM—006203) (Homo sapiens, UniProt Q08499)
Experiment: PDE4 assay (SPA, cleavage of cAMP)
Format: biochemical
Conditions: 1 hour incubation, test compound up to 10 μM, cAMP 1×10^−5M, read-out: PDE4 IC50 range
Method: Human recombinant PDE4 (Genbank accession no NM_006203) was incubated for 1 hour with the test compound at concentrations up to 10 μM, with cAMP (1×10^−5M), and with a low amount (0.021 MBq) of radioactively labelled cAMP. At the end of the incubation, the cleavage of the substrate was evaluated by the binding of the AMP product to SPA beads, which generate chemoluminescence when bound to the radioactive tracer. The AMP product inhibited the binding of the radioactive tracer to the beads, and the luminescent signal was competed.
The results were calculated as the molar concentrations resulting in 50% inhibition of the substrate cleavage compared to controls samples, and are expressed as a range of IC50 (M).
The compounds of the present invention were tested in the PDE4 assay.

Chain of Human recombinant PDE4 (Genbank accession no NM—006203) (Q08499 1-673 isoform Q08499-2): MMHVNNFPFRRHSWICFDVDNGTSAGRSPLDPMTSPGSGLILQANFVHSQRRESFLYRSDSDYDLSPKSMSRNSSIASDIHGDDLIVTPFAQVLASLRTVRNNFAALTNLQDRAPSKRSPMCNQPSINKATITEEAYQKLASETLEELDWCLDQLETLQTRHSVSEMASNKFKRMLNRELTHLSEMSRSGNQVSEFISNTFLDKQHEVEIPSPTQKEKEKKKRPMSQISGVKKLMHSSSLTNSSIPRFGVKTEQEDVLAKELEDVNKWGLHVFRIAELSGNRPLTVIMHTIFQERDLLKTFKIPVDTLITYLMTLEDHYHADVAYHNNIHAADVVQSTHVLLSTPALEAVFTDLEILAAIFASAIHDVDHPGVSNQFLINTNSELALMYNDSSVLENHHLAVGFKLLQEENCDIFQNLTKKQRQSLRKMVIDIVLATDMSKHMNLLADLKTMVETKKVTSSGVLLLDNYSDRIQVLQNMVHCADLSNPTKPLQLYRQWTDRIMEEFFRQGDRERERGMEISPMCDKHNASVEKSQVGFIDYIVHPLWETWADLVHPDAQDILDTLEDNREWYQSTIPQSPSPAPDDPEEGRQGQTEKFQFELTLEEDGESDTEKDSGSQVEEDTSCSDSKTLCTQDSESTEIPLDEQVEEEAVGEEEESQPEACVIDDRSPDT

Row | IC50 [µM] | Structure (SMILES)
1 | < 0.1 | COc1ccc(-c2ccc3c(c2)CCC3=O)c(OCc2ccc(C(N)=O)cc2)c1OC [Compound 124, 4-[2,3-Dimethoxy-6-(1-oxo-indan-5-yl)-phenoxymethyl]-benzamide]
2 | < 0.1 | COc1ccc(-c2ccc3c(c2)CCC3=O)c(OCc2ccc(C(=O)N(C)C)cc2)c1OC [Compound 127, 4-[2,3-Dimethoxy-6-(1-oxo-indan-5-yl)-phenoxymethyl]-N,N-dimethyl-benzamide]
3 | < 0.1 | COc1ccc(-c2cccc3c2CCC3=O)c(OCC(C)(C)C(=O)N(C)C)c1OC [Compound 202, 3-[2,3-Dimethoxy-6-(1-oxo-indan-4-yl)-phenoxy]-2,2,N,N-tetramethyl-propionamide]
4 | < 0.1 | COc1ccc(-c2ccc3c(c2)CNC3=O)c(OCc2ccc(S(C)(=O)=O)cc2)c1OC [Compound 150, 5-[2-(4-Methanesulfonyl-benzyloxy)-3,4-dimethoxy-phenyl]-2,3-dihydro-isoindol-1-one]
5 | < 0.1 | COc1ccc(-c2cccc3c2CCC3=O)c(OCC2(CO)CC2)c1OC [Compound 177, 4-[2-(1-Hydroxymethyl-cyclopropylmethoxy)-3,4-dimethoxy-phenyl]-indan-1-one]
6 | < 0.1 | COCC1(COc2c(-c3cccc4c3CCC4=O)ccc(OC)c2OC)CC1 [Compound 178, 4-[3,4-Dimethoxy-2-(1-methoxymethyl-cyclopropylmethoxy)-phenyl]-indan-1-one]
7 | < 0.1 | COc1ccc(-c2cccc3c2CCC3=O)c(OCc2ccc(S(C)(=O)=O)cc2)c1OC [Compound 103, 4-[2-(4-Methanesulfonyl-benzyloxy)-3,4-dimethoxy-phenyl]-indan-1-one]
8 | < 0.1 | COc1ccc(-c2cccc3c2CCC3=O)c(OCC2(CNC(=O)OC(C)C)COC2)c1OC [Compound 197, {3-[2,3-Dimethoxy-6-(1-oxo-indan-4-yl)-phenoxymethyl]-oxetan-3-ylmethyl}-carbamic acid isopropyl ester]
9 | < 0.1 | COc1ccc(-c2cccc3c2CCC3=O)c(OCc2cccc(C(N)=O)c2)c1OC [Compound 114, 3-[2,3-Dimethoxy-6-(1-oxo-indan-4-yl)-phenoxymethyl]-benzamide]
10 | < 0.1 | COc1ccc(-c2ccc3c(c2)CNC3=O)c(OCC(C)(C)CO)c1OC [Compound 154, 5-[2-(3-Hydroxy-2,2-dimethyl-propoxy)-3,4-dimethoxy-phenyl]-2,3-dihydro-isoindol-1-one]
11 | < 0.1 | CNC(=O)c1ccc(COc2c(-c3cccc4c3CCC4=O)ccc(OC)c2OC)cc1 [Compound 108, 4-[2,3-Dimethoxy-6-(1-oxo-indan-4-yl)-phenoxymethyl]-N-methyl-benzamide]
12 | < 0.1 | COc1ccc(-c2cccc3c2CCC3=O)c(OCC2(CNC(C)=O)CC2)c1OC [Compound 185, N-{1-[2,3-Dimethoxy-6-(1-oxo-indan-4-yl)-phenoxymethyl]-cyclopropylmethyl}-acetamide]
13 | < 0.1 | COc1ccc(-c2ccc3c(c2)CCC3=O)c(OCc2cccc(C(=O)N(C)C)c2)c1OC [Compound 128, 3-[2,3-Dimethoxy-6-(1-oxo-indan-5-yl)-phenoxymethyl]-N,N-dimethyl-benzamide]
14 | < 0.1 | CCOC(=O)NCC1(COc2c(-c3cccc4c3CCC4=O)ccc(OC)c2OC)CC1 [Compound 186, {1-[2,3-Dimethoxy-6-(1-oxo-indan-4-yl)-phenoxymethyl]-cyclopropylmethyl}-carbamic Acid Ethyl Ester]
15 | < 0.1 | COCCOC(=O)NCC1(COc2c(-c3cccc4c3CCC4=O)ccc(OC)c2OC)COC1 [Compound 198, {3-[2,3-Dimethoxy-6-(1-oxo-indan-4-yl)-phenoxymethyl]-oxetan-3-ylmethyl}-carbamic acid 2-methoxy-ethyl ester]
16 | < 0.1 | COc1ccc(-c2cccc3c2CCC3=O)c(OCC2(COC(=O)NC(C)C)CC2)c1OC [Compound 180, Isopropyl-carbamic acid 1-[2,3-dimethoxy-6-(1-oxo-indan-4-yl)-phenoxymethyl]-cyclopropylmethyl ester]

Row | IC50 [µM] | Structure (SMILES)
17 | < 0.1 | CNC(=O)c1ccc(COc2c(-c3ccc4c(c3)CCC4=O)ccc(OC)c2OC)cc1 [Compound 126, 4-[2,3-Dimethoxy-6-(1-oxo-indan-5-yl)-phenoxymethyl]-N-methyl-benzamide]
18 | < 0.1 | COc1ccc(-c2cccc3c2CCC3=O)c(OCC(C)(C)C(=O)NC2CC2)c1OC [Compound 203, N-Cyclopropyl-3-[2,3-dimethoxy-6-(1-oxo-indan-4-yl)-phenoxy]-2,2-dimethyl-propionamide]
19 | < 0.1 | COc1ccc(-c2cccc3c2CCC3=O)c(OCC2(CNC(C)=O)COC2)c1OC [Compound 192, N-{3-[2,3-Dimethoxy-6-(1-oxo-indan-4-yl)-phenoxymethyl]-oxetan-3-ylmethyl}-acetamide]
20 | < 0.1 | COc1ccc(-c2ccc3c(c2)COC3=O)c(OCc2ccc(C(=O)N(C)C)cc2)c1OC [Compound 139, 4-[2,3-Dimethoxy-6-(1-oxo-1,3-dihydro-isobenzofuran-5-yl)-phenoxymethyl]-N,N-dimethyl-benzamide]
21 | < 0.1 | CCCC(=O)NCC1(COc2c(-c3cccc4c3CCC4=O)ccc(OC)c2OC)CC1 [Compound 184, N-{1-[2,3-Dimethoxy-6-(1-oxo-indan-4-yl)-phenoxymethyl]-cyclopropylmethyl}-butyramide]
22 | < 0.1 | COc1ccc(-c2ccc3c(c2)CNC3=O)c(OCc2ccc(C(=O)N(C)C)cc2)c1OC [Compound 156, 4-[2,3-Dimethoxy-6-(1-oxo-2,3-dihydro-1H-isoindol-5-yl)-phenoxymethyl]-N,N-dimethyl-benzamide]
23 | < 0.1 | COc1ccc(-c2ccc3c(c2)CCC3=O)c(OCc2ccc(S(C)(=O)=O)cc2)c1OC [Compound 130, 5-[2-(4-Methanesulfonyl-benzyloxy)-3,4-dimethoxy-phenyl]-indan-1-one]
24 | < 0.1 | COCC(C)(C)COc1c(-c2ccc3c(c2)COC3=O)ccc(OC)c1OC [Compound 218, 5-[3,4-Dimethoxy-2-(3-methoxy-2,2-dimethyl-propoxy)-phenyl]-3H-isobenzofuran-1-one]
25 | < 0.1 | COc1ccc(-c2cccc3c2CCC3=O)c(OCC2(CO)COC2)c1OC [Compound 104, 4-[2-(3-Hydroxymethyl-oxetan-3-ylmethoxy)-3,4-dimethoxy-phenyl]-indan-1-one]
26 | < 0.1 | COc1ccc(-c2cccc3c2CCC3=O)c(OCC(C)(C)C(=O)N2CCOCC2)c1OC [Compound 204, 4-[2-(2,2-Dimethyl-3-morpholin-4-yl-3-oxo-propoxy)-3,4-dimethoxy-phenyl]-indan-1-one]
27 | < 0.1 | CCNC(=O)OCC1(COc2c(-c3cccc4c3CCC4=O)ccc(OC)c2OC)CC1 [Compound 179, Ethyl-carbamic acid 1-[2,3-dimethoxy-6-(1-oxo-indan-4-yl)-phenoxymethyl]-cyclopropylmethyl ester]
28 | 0.1 to 0.5 | COc1ccc(-c2cccc3c2COC3=O)c(OCC2(C)COC2)c1OC [Compound 164, 4-[3,4-Dimethoxy-2-(3-methyl-oxetan-3-ylmethoxy)-phenyl]-3H-isobenzofuran-1-one]
29 | < 0.1 | CNC(=O)C(C)(C)COc1c(-c2ccc3c(c2)CCC3=O)ccc(OC)c1OC [Compound 206, 3-[2,3-Dimethoxy-6-(1-oxo-indan-5-yl)-phenoxy]-2,2,N-trimethyl-propionamide]
30 | < 0.1 | COc1ccc(-c2ccc3c(c2)CNC3=O)c(OCC2CCC2)c1OC [Compound 149, 5-(2-Cyclobutylmethoxy-3,4-dimethoxy-phenyl)-2,3-dihydro-isoindol-1-one]
31 | < 0.1 | COc1ccc(-c2ccc3c(c2)CNC3=O)c(OCc2cccc(S(N)(=O)=O)c2)c1OC [Compound 158, 3-[2,3-Dimethoxy-6-(1-oxo-2,3-dihydro-1H-isoindol-5-yl)-phenoxymethyl]-benzenesulfonamide]
32 | < 0.1 | COc1ccc(-c2cccc3c2CCC3=O)c(OCc2cccc(S(=O)(=O)N(C)C)c2)c1OC [Compound 111, 3-[2,3-Dimethoxy-6-(1-oxo-indan-4-yl)-phenoxymethyl]-N,N-dimethyl-benzenesulfonamide]

Row | Structure (SMILES) | IC50 [µM]
33 | COc1ccc(-c2ccc3c(c2)CNC3=O)c(OCC(C)C)c1OC [Compound 174, 5-(2-Isobutoxy-3,4-dimethoxy-phenyl)-2,3-dihydro-isoindol-1-one] | < 0.1
34 | COc1ccc(-c2cc(OC)c(OC)c3c2CCC3=O)c(OCC(C)C)c1OC [Compound 167, 4-(2-Isobutoxy-3,4-dimethoxy-phenyl)-6,7-dimethoxy-indan-1-one] | 0.1 to 0.5
35 | COc1ccc(-c2ccc3c(c2)C(C)N(C)C3=O)c(OCC(C)C)c1OC (stereo not drawn) [Compound 171, 5-(2-Isobutoxy-3,4-dimethoxy-phenyl)-2,3-dimethyl-2,3-dihydro-isoindol-1-one] | ≥ 0.5
36 | COc1ccc(-c2cccc3c2COC3=O)c(OCC(C)C)c1OC [Compound 175, 4-(2-Isobutoxy-3,4-dimethoxy-phenyl)-3H-isobenzofuran-1-one] | < 0.1
37 | COc1ccc(-c2cccc3c2CCC3=O)c(OCCC(C)C)c1OC [Compound 101, 4-[3,4-Dimethoxy-2-(3-methyl-butoxy)-phenyl]-indan-1-one] | < 0.1
38 | COc1ccc(-c2ccc(OC)c3c2CCC3=O)c(OCC(C)C)c1OC [Compound 168, 4-(2-Isobutoxy-3,4-dimethoxy-phenyl)-7-methoxy-indan-1-one] | ≥ 0.5
39 | COc1ccc(-c2ccc3c(c2)COC3=O)c(OCCC(C)(C)C)c1OC [Compound 135, 5-[2-(3,3-Dimethyl-butoxy)-3,4-dimethoxy-phenyl]-3H-isobenzofuran-1-one] | < 0.1
